Measured values taken from patent US20230040125A1, “TARGETING THE INTRINSIC APOPTOTIC MACHINERY IN GLIOBLASTOMA” (The Regents of The University Of California, priority 2019, published 2023).
“Also recorded” adds a separate entry of the source.

Test system: GBM lines
Experiment: TMZ/IR titrated across a panel of GBM lines with a fixed dose of BCLXL inhibitor, cell death
Assay type: cell-based
Settings: TMZ/IR titrated with a fixed dose of A1155463
Description: In the triplet of histogram bars for each dosage, the left bar represents all data (TMZR/IR alone, n=17), the center bar represents p53 WT+BCLXL In. (n=12), and the right bar represents p53 mutants+BCLXL In. (n=5). […] To investigate if BCL-xL is preventing the standard of care from inducing apoptosis, TMZ/IR were titrated in across a panel of genetically diverse GBM lines (n=17) with a fixed dose of BCLXL inhibitor (A1155463).

Compound: CN(C)CC#Cc1ccc(OCCCc2sc(N3CCc4cccc(C(=O)Nc5nc6ccccc6s5)c4C3)nc2C(=O)O)c(F)c1 [A1155463]
- cell death (p53 mutant GBM, panel n=17 (p53 mutants n=5)): no added benefit
- cell death (p53 wild type GBM, panel n=17 (p53 WT n=12)): significantly increase cell death; also recorded: increases cell death
